Results taken from patent EP4806891A1 (Kangbaida (Sichuan) Biotechnology Co., Ltd., priority 2023, dated 2025).

Target: T1, HEK-Blue-hTLR7 cells (Homo sapiens, UniProt Q9NYK1)
T1 construct: expressed in transfected cells; host or cells: HEK-Blue-hTLR7 cells (HEK293-derived reporter line)
T1 sequence (Q9NYK1 27-1049): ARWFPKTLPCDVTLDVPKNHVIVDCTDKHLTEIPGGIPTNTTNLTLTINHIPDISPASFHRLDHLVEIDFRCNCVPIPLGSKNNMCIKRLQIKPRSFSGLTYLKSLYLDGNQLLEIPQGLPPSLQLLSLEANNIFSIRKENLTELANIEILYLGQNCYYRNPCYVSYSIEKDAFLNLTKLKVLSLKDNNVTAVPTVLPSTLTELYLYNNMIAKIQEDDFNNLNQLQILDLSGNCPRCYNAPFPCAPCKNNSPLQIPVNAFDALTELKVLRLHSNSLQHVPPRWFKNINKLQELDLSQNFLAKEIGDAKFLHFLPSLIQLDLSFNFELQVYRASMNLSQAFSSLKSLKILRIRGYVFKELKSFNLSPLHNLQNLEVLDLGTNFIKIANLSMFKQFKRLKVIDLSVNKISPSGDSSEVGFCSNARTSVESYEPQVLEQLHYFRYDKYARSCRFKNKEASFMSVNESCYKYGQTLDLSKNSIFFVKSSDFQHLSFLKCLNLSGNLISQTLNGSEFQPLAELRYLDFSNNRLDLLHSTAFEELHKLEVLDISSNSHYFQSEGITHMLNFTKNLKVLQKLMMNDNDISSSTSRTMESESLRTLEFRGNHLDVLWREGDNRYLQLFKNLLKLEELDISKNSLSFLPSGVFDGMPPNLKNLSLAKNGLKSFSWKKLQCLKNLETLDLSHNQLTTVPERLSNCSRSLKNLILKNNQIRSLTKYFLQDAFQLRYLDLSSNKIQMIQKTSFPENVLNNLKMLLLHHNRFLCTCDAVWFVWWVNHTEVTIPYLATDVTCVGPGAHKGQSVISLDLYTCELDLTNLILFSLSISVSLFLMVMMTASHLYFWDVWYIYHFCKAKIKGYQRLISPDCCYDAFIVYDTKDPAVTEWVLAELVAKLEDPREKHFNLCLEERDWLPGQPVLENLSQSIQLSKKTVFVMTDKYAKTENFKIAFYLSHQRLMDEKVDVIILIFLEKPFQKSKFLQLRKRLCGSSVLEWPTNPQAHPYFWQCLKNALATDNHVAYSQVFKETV
Assay: HEK-Blue-hTLR7 cell inhibition assay
Format: cell-based
Conditions: R848 0.8 µM, 16 h, OD 620 nm, read-out: TLR7 IC50
How it was run: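 Cells were pre-incubated 4 h, then co-treated 16 h at 37 °C with compound (10 doses, 0.5–10000 nM final) plus R848 (0.8 µM for TLR7, 3 µM for TLR8) or ODN2006 (1 µM, TLR9). Reporter OD620 gave inhibition relative to DMSO blank and agonist-only controls; IC50 came from curve fitting.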

| SMILES | IC50 |
| --- | --- |
| N#Cc1ccc(N2C[C@]3(c4nnc(C5CCNCC5)o4)C[C@]3(C(F)(F)F)C2)c2c(F)cnn12 [Compound 80, 3-fluoro-4-((1S,5R)-1-(5-(piperidin-4-yl)-1,3,4-oxadiazol-2-yl)-5-(trifluoromethyl)-3-azabicyclo[3.1.0]hexan-3-yl)pyrazolo[1,5-a]pyridine-7-carbonitrile] | < 100 nM |
| CN(C)Cc1nnc([C@]23CN(c4ccc(C#N)c5ncccc45)C[C@@]2(C(F)(F)F)C3)o1 [Compound 42, 5-((1S,5R)-1-(5-((dimethylamino)methyl)-1,3,4-oxadiazol-2-yl)-5-(trifluoromethyl)-3-azabicyclo[3.1.0]hexan-3-yl)quinoline-8-carbonitrile] | < 100 nM |
| CN1CCC(Oc2nnc([C@]34CN(c5ccc(OC(F)(F)F)c6ncccc56)C[C@@]3(C(F)(F)F)C4)o2)CC1 [Compound 93, 2-((1-methylpiperidin-4-yl)oxy)-5-((1S,5R)-5-(trifluoromethyl)-3-(8-(trifluoromethoxy)quinolin-5-yl)-3-azabicyclo[3.1.0]hexan-1-yl)-1,3,4-oxadiazole] | < 1000 nM |
| CN1CC2(CC(c3nnc([C@]45CN(c6ccc(C#N)c7ncccc67)C[C@@]4(C(F)(F)F)C5)o3)C2)C1 [Compound 19, 5-((1S,5R)-1-(5-(2-methyl-2-azaspiro[3.3]heptan-6-yl)-1,3,4-oxadiazol-2-yl)-5-(trifluoromethyl)-3-azabicyclo[3.1.0]hexan-3-yl)quinoline-8-carbonitrile] | < 100 nM |
| CN1[C@@H]2CC[C@H]1C[C@H](c1nnc([C@]34CN(c5ccc(C#N)c6ncccc56)C[C@@]3(C(F)(F)F)C4)o1)C2 [Compound 11, 5-((1S,5R)-1-(5-((1R,3S,5S)-8-methyl-8-azabicyclo[3.2.1]octan-3-yl)-1,3,4-oxadiazol-2-yl)-5-(trifluoromethyl)-3-azabicyclo[3.1.0]hexan-3-yl)quinoline-8-carbonitrile] | < 100 nM |
| FC(F)(F)c1ccc(N2C[C@]3(c4nnc(C5CCNCC5)o4)C[C@]3(C(F)(F)F)C2)c2cccnc12 [Compound 75, 2-(piperidin-4-yl)-5-((1S,5R)-5-(trifluoromethyl)-3-(8-(trifluoromethyl)quinolin-5-yl)-3-azabicyclo[3.1.0]hexan-1-yl)-1,3,4-oxadiazole] | < 100 nM |
| CN1CCC(Nc2nnc([C@]34CN(c5ccc(C#N)c6ncccc56)C[C@@]3(C(F)(F)F)C4)o2)CC1 [Compound 6, 5-((1S,5R)-1-(5-((1-methylpiperidin-4-yl)amino)-1,3,4-oxadiazol-2-yl)-5-(trifluoromethyl)-3-azabicyclo[3.1.0]hexan-3-yl)quinoline-8-carbonitrile] | < 100 nM |
| CN1CCC(O)(c2nnc([C@]34CN(c5ccc(C(F)(F)F)c6ncccc56)C[C@@]3(C(F)(F)F)C4)o2)CC1 [Compound 94, 1-methyl-4-(5-((1S,5R)-5-(trifluoromethyl)-3-(8-(trifluoromethyl)quinolin-5-yl)-3-azabicyclo[3.1.0]hexan-1-yl)-1,3,4-oxadiazol-2-yl)piperidin-4-ol] | < 100 nM |
| CN1CCC(c2nnc([C@]34CN(c5ccc(C#N)n6ncc(Br)c56)C[C@@]3(C(F)(F)F)C4)o2)CC1 [Compound 83, 3-bromo-4-((1S,5R)-1-(5-(1-methylpiperidin-4-yl)-1,3,4-oxadiazol-2-yl)-5-(trifluoromethyl)-3-azabicyclo[3.1.0]hexan-3-yl)pyrazolo[1,5-a]pyridine-7-carbonitrile] | < 1000 nM |
| CN1CC(c2nnc([C@]34CN(c5ccc(C(F)(F)F)c6ncccc56)C[C@@]3(C(F)(F)F)C4)o2)C1 [Compound 4, 2-(1-methylazetidin-3-yl)-5-((1S,5R)-5-(trifluoromethyl)-3-(8-(trifluoromethyl)quinolin-5-yl)-3-azabicyclo[3.1.0]hexan-1-yl)-1,3,4-oxadiazole] | < 100 nM |
| N#Cc1ccc(N2C[C@]3(c4nnc(C#CCN5CCOCC5)o4)C[C@]3(C(F)(F)F)C2)c2cccnc12 [Compound 24, 5-((1S,5R)-1-(5-(3-morpholinoprop-1-yn-1-yl)-1,3,4-oxadiazol-2-yl)-5-(trifluoromethyl)-3-azabicyclo[3.1.0]hexan-3-yl)quinoline-8-carbonitrile] | < 1000 nM |
| N#Cc1ccc(N2C[C@]3(c4nnc(C5(F)CCNCC5)o4)C[C@]3(C(F)(F)F)C2)c2cccnc12 [Compound 60, 5-((1S,5R)-1-(5-(4-fluoropiperidin-4-yl)-1,3,4-oxadiazol-2-yl)-5-(trifluoromethyl)-3-azabicyclo[3.1.0]hexan-3-yl)quinoline-8-carbonitrile] | < 100 nM |
| CN(C)C12CCC(c3nnc([C@]45CN(c6ccc(C#N)c7ncccc67)C[C@@]4(C(F)(F)F)C5)o3)(CC1)CC2 [Compound 53, 5-((1S,5R)-1-(5-(4-(dimethylamino)bicyclo[2.2.2]octan-1-yl)-1,3,4-oxadiazol-2-yl)-5-(trifluoromethyl)-3-azabicyclo[3.1.0]hexan-3-yl)quinoline-8-carbonitrile] | < 100 nM |
| N#Cc1ccc(N2C[C@]3(c4nnc(C5CCOCC5)o4)C[C@]3(C(F)(F)F)C2)c2cccnc12 [Compound 12, 5-((1S,5R)-1-(5-(tetrahydro-2H-pyran-4-yl)-1,3,4-oxadiazol-2-yl)-5-(trifluoromethyl)-3-azabicyclo[3.1.0]hexan-3-yl)quinoline-8-carbonitrile] | < 100 nM |
| NC12CCC(c3nnc([C@]45CN(c6ccc(C(F)(F)F)c7ncccc67)C[C@@]4(C(F)(F)F)C5)o3)(CC1)CC2 [Compound 81, 4-(5-((1S,5R)-5-(trifluoromethyl)-3-(8-(trifluoromethyl)quinolin-5-yl)-3-azabicyclo[3.1.0]hexan-1-yl)-1,3,4-oxadiazol-2-yl)bicyclo[2.2.2]octan-1-amine] | < 100 nM |
| CN(C)CCc1nnc([C@]23CN(c4ccc(C#N)c5ncccc45)C[C@@]2(C(F)(F)F)C3)o1 [Compound 51, 5-((1S,5R)-1-(5-(2-(dimethylamino)ethyl)-1,3,4-oxadiazol-2-yl)-5-(trifluoromethyl)-3-azabicyclo[3.1.0]hexan-3-yl)quinoline-8-carbonitrile] | < 100 nM |
| COc1ccc(N2C[C@]3(c4nnc(C5CCN(C)CC5)o4)C[C@]3(C(F)(F)F)C2)c2cccnc12 [Compound 66, 2-((1S,5R)-3-(8-methoxyquinolin-5-yl)-5-(trifluoromethyl)-3-azabicyclo[3.1.0]hexan-1-yl)-5-(1-methylpiperidin-4-yl)-1,3,4-oxadiazole] | < 100 nM |
| N#Cc1ccc(N2C[C@]3(c4nnc(C5(F)CNC5)o4)C[C@]3(C(F)(F)F)C2)c2cccnc12 [Compound 32, 5-((1S,5R)-1-(5-(3-Fluoroazetidin-3-yl)-1,3,4-oxadiazol-2-yl)-5-(trifluoromethyl)-3-azabicyclo[3.1.0]hexan-3-yl)quinoline-8-carbonitrile] | < 100 nM |
| CN1CC(Cc2nnc([C@]34CN(c5ccc(C#N)c6ncccc56)C[C@@]3(C(F)(F)F)C4)o2)C1 [Compound 36, 5-((1S,5R)-1-(5-((1-methylazetidin-3-yl)methyl)-1,3,4-oxadiazol-2-yl)-5-(trifluoromethyl)-3-azabicyclo[3.1.0]hexan-3-yl)quinoline-8-carbonitrile] | < 100 nM |
| N#Cc1ccc(N2C[C@]3(c4nnc(C5CNCC(F)C5)o4)C[C@]3(C(F)(F)F)C2)c2cccnc12 (stereo partly drawn) [Compound 45, 5-((1R,5S)-1-((difluoro-3-methyl)-12-fluoraneyl)-5-(5-(5-fluoropiperidin-3-yl)-1,3,4-oxadiazol-2-yl)-3-azabicyclo[3.1.0]hexan-3-yl)quinoline-8-carbonitrile] | < 100 nM |
| NC(=O)CN1CCC(c2nnc([C@]34CN(c5ccc(C(F)(F)F)c6ncccc56)C[C@@]3(C(F)(F)F)C4)o2)CC1 [Compound 77, 2-(4-(5-((1S,5R)-5-(trifluoromethyl)-3-(8-(trifluoromethyl)quinolin-5-yl)-3-azabicyclo[3.1.0]hexan-1-yl)-1,3,4-oxadiazol-2-yl)piperidin-1-yl)acetamide] | < 100 nM |
| CN1CCC(Cc2nnc([C@]34CN(c5ccc(C#N)c6ncccc56)C[C@@]3(C(F)(F)F)C4)o2)CC1 [Compound 37, 5-((1S,5R)-1-(5-((1-methylpiperidin-4-yl)methyl)-1,3,4-oxadiazol-2-yl)-5-(trifluoromethyl)-3-azabicyclo[3.1.0]hexan-3-yl)quinoline-8-carbonitrile] | < 100 nM |
